Results on 7 cell lines are retold here after the supplement of paper PMC10307832.

What all share (test): relative viability (nuclei count vs DMSO), 5 days (fraction); higher = more cells survive
Compound in test [1]: CC(C)C[C@@H](C(=O)N[C@H](C(=O)OC1CCCC1)c1ccccc1)[C@H](O)C(=O)NO [Tosedostat] + CC(=O)Nc1cccc(-n2c(=O)n(C3CC3)c(=O)c3c(Nc4ccc(I)cc4F)n(C)c(=O)c(C)c32)c1 [Trametinib] (partner 0.02 µM)
The gist of the method: (§1)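 A single step with final 0.05% Triton X-100, 1% formaldehyde and 1 ug/ml Hoechst fixed the cells and stained nuclei 5 days after treatment. Lung cancer cell lines in 1536-well plates had been treated by pin tool the day after seeding with one drug alone or a fixed anchor-drug dose plus five library-drug doses (not always all listed) in √10 steps, and nuclei were counted on 4× images. Relative viability is the ratio of nuclei in treated wells to nuclei in vehicle wells, taken as the median of duplicate plates.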

Compound in test [2]: CC(C)C[C@@H](C(=O)N[C@H](C(=O)OC1CCCC1)c1ccccc1)[C@H](O)C(=O)NO [Tosedostat] + N=C(N)NC(=N)NCCc1ccccc1 [Phenformin] (partner 250 µM)
In short, it runs like this:
as §1

Compound in test [3]: CC1=NN=C(O1)C2=NN=C(C=C2)N3CCC(CC3)OC4=C(C=CC(=C4)F)Cl + O=C(CCCCCCC(=O)Nc1ccccc1)NO [Vorinostat] (partner 1 µM)
In short, it runs like this:
as §1

Compound in test [4]: CC(C)C[C@@H](C(=O)N[C@H](C(=O)OC1CCCC1)c1ccccc1)[C@H](O)C(=O)NO [Tosedostat] + Cc1nc(NC(=O)N2CCC[C@H]2C(N)=O)sc1-c1ccnc(C(C)(C)C(F)(F)F)c1 [Alpelisib] (partner 2 µM)
In short, it runs like this:
as §1

On to 201T, for which the relative viability in test [1] (first compound 0.02 µM) was found to be 0.673; in test [1] (first compound 0.06325 µM), 0.743; in test [1] (first compound 0.2 µM) it was 0.732; in test [1] (first compound 0.6325 µM), 0.745; in test [1] (first compound 2 µM) it was 0.781; in test [2] (first compound 0.02 µM) it was 0.425. For the same cell line, the relative viability in test [2] (first compound 0.06325 µM) came to 0.445; in test [2] (first compound 0.2 µM), 0.461; in test [2] (first compound 0.6325 µM), 0.428; in test [2] (first compound 2 µM) it was 0.445; in test [3] (first compound 0.253 µM) it was 0.474; in test [3] (first compound 0.8 µM) it was 0.501. For the same cell line, the relative viability was found to be 0.478 in test [3] (first compound 2.53 µM); 0.479 in test [3] (first compound 8 µM); 0.967 in test [4] (first compound 0.02 µM); 1.08 in test [4] (first compound 0.06325 µM); 1.07 in test [4] (first compound 0.2 µM); 1.21 in test [4] (first compound 0.6325 µM). In test [4] (first compound 2 µM), the relative viability was 1.15.

Turning to A549, the relative viability was 0.154 in test [2] (first compound 0.02 µM); 0.217 in test [2] (first compound 0.06325 µM); 0.233 in test [2] (first compound 0.2 µM); 0.101 in test [2] (first compound 0.6325 µM); 0.116 in test [2] (first compound 2 µM); 0.753 in test [4] (first compound 0.02 µM). Further, the relative viability turned out to be 0.714 in test [4] (first compound 0.06325 µM), 0.683 in test [4] (first compound 0.2 µM), 0.709 in test [4] (first compound 0.6325 µM) and 0.526 in test [4] (first compound 2 µM).

Regarding A-427, the relative viability was 0.789 in test [1] (first compound 0.02 µM); 0.748 in test [1] (first compound 0.06325 µM); 0.818 in test [1] (first compound 0.2 µM); 0.719 in test [1] (first compound 0.6325 µM); 0.701 in test [1] (first compound 2 µM); 0.322 in test [2] (first compound 0.02 µM). Besides, the relative viability in test [2] (first compound 0.06325 µM) was 0.393; in test [2] (first compound 0.2 µM), 0.376; in test [2] (first compound 0.6325 µM), 0.301; in test [2] (first compound 2 µM) it was 0.323; in test [3] (first compound 0.253 µM) it was 0.796; in test [3] (first compound 0.8 µM), 0.689. In addition, the relative viability was 0.791 in test [3] (first compound 2.53 µM); 0.703 in test [3] (first compound 8 µM); 1.1 in test [4] (first compound 0.02 µM); 1.09 in test [4] (first compound 0.06325 µM); 1.12 in test [4] (first compound 0.2 µM); 1.12 in test [4] (first compound 0.6325 µM). Further, the relative viability in test [4] (first compound 2 µM) is 0.983.

Take ABC-1: the relative viability came out at 0.201 in test [2] (first compound 0.02 µM); 0.201 in test [2] (first compound 0.06325 µM); 0.247 in test [2] (first compound 0.2 µM); 0.23 in test [2] (first compound 0.6325 µM); 0.206 in test [2] (first compound 2 µM); 0.542 in test [3] (first compound 0.253 µM). The relative viability in test [3] (first compound 0.8 µM) was found to be 0.487; in test [3] (first compound 2.53 µM) it was 0.402; in test [3] (first compound 8 µM), 0.525; in test [4] (first compound 0.02 µM), 1.05; in test [4] (first compound 0.06325 µM), 0.864; in test [4] (first compound 0.2 µM) it was 1.08. Moreover, the relative viability in test [4] (first compound 0.6325 µM) is 0.843; in test [4] (first compound 2 µM) it was 0.771.

With BEN, the relative viability was 1.17 in test [1] (first compound 0.02 µM); 1 in test [1] (first compound 0.06325 µM); 1.09 in test [1] (first compound 0.2 µM); 1.21 in test [1] (first compound 0.6325 µM); 1.38 in test [1] (first compound 2 µM); 0.263 in test [2] (first compound 0.02 µM). Also, the relative viability in test [2] (first compound 0.06325 µM) was found to be 0.251; in test [2] (first compound 0.2 µM) it was 0.269; in test [2] (first compound 0.6325 µM), 0.253; in test [2] (first compound 2 µM), 0.273; in test [3] (first compound 0.253 µM), 0.566; in test [3] (first compound 0.8 µM), 0.536. The relative viability in test [3] (first compound 2.53 µM) was 0.551; in test [3] (first compound 8 µM), 0.538; in test [4] (first compound 0.02 µM), 1.09; in test [4] (first compound 0.06325 µM), 1.01; in test [4] (first compound 0.2 µM), 1.15; in test [4] (first compound 0.6325 µM), 1.28. Further, the relative viability in test [4] (first compound 2 µM) stood at 1.26.

CAL-12T: the relative viability in test [1] (first compound 0.02 µM) came out at 0.393; in test [1] (first compound 0.06325 µM), 0.364; in test [1] (first compound 0.2 µM), 0.339; in test [1] (first compound 0.6325 µM), 0.394; in test [1] (first compound 2 µM), 0.325; in test [2] (first compound 0.02 µM), 0.639. The relative viability in test [2] (first compound 0.06325 µM) is 0.552; in test [2] (first compound 0.2 µM), 0.508; in test [2] (first compound 0.6325 µM), 0.446; in test [2] (first compound 2 µM) it was 0.371; in test [3] (first compound 0.253 µM), 0.524; in test [3] (first compound 0.8 µM), 0.542. Also, the relative viability in test [3] (first compound 2.53 µM) is 0.566; in test [3] (first compound 8 µM), 0.368; in test [4] (first compound 0.02 µM) it was 1.28; in test [4] (first compound 0.06325 µM), 1.14; in test [4] (first compound 0.2 µM), 1.3; in test [4] (first compound 0.6325 µM) it was 0.988. Further, in test [4] (first compound 2 µM), the relative viability worked out at 0.872.

As for COR-L23, the relative viability was 0.698 in test [1] (first compound 0.02 µM); 0.594 in test [1] (first compound 0.06325 µM); 0.587 in test [1] (first compound 0.2 µM); 0.491 in test [1] (first compound 0.6325 µM); 0.508 in test [1] (first compound 2 µM); 0.486 in test [2] (first compound 0.02 µM). In addition, the relative viability came to 0.386 in test [2] (first compound 0.06325 µM); 0.415 in test [2] (first compound 0.2 µM); 0.383 in test [2] (first compound 0.6325 µM); 0.401 in test [2] (first compound 2 µM); 0.332 in test [3] (first compound 0.253 µM); 0.378 in test [3] (first compound 0.8 µM). Further, the relative viability in test [3] (first compound 2.53 µM) was 0.375; in test [3] (first compound 8 µM), 0.316; in test [4] (first compound 0.02 µM) it was 0.871; in test [4] (first compound 0.06325 µM), 0.727; in test [4] (first compound 0.2 µM), 0.746; in test [4] (first compound 0.6325 µM), 0.694. Also, the relative viability in test [4] (first compound 2 µM) is 0.655.
